In experiment [1] the test system is Escherichia coli. Briefly: Inhibition of Escherichia coli MurF assessed as residual activity at 250 uM by malachite green assay.
In experiment [2] the test system is Escherichia coli. Briefly: Antibacterial activity against Escherichia coli 1411 after 18 hrs by broth microdilution method. The format is functional, organism-based. Background: Dilution methods test growth across graded concentrations, often in twofold steps.
Experiment [3] concerns Escherichia coli. Nature of the experiment: Antibacterial activity against AcrAB deficient Escherichia coli SM1411 after 18 hrs by broth microdilution method. It counts as functional, organism-based.
The next experiment relates to Staphylococcus aureus. Nature of the experiment: Antibacterial activity against Staphylococcus aureus 8325-4 after 18 hrs by broth microdilution method. The format is functional.
Experiment [4] relates to Escherichia coli. Briefly: Inhibition of Escherichia coli MurD assessed as residual activity at 250 uM by malachite green assay.
Experiment [5] in a line: Inhibition of Escherichia coli MurD assessed as blockade of addition of D-[14C]Glu to UDP-MurNAc-L-Ala.
A short description of experiment [6]: Inhibition of Escherichia coli MurF.

Converted amounts (≈) assume the structure as drawn. The source made the active and inactive calls. No cut-off for these calls is given here.

A word on the IC50: it is the concentration at which inhibition is half-maximal. By MIC is commonly meant the lowest concentration found to suppress growth. A lower MIC goes with greater potency.

With `CCCCCCCCCCCCN(C)C`, the Activity in the experiment on Escherichia coli [1] was under 50%. For the same molecule, the result with Escherichia coli [2], with Escherichia coli [3] and with Staphylococcus aureus was inactive.

As for `O=C(O)c1c(Br)c(Br)c(Br)c(Br)c1C1c2ccc(O)cc2Oc2cc(O)ccc21`, the Activity with Escherichia coli [4] is under 50%. For the same molecule, the IC50 in experiment [5] stood at 10 µM. For the same molecule, the result with Escherichia coli [2], with Escherichia coli [3] and in the experiment on Staphylococcus aureus was inactive.

With `O=C1/C(=N/CCc2cc(Br)c(O)c(Br)c2)C=C(O)c2cccnc21`, in the experiment on Escherichia coli [1], the Activity is under 50%. Also, the result with Escherichia coli [2], with Escherichia coli [3] and with Staphylococcus aureus was inactive.

Turning to `CC1C2C=CC1C(c1c3ccc(=O)c(O)c-3oc3c(O)c(O)ccc13)C2C(=O)O` (stereo unspecified), the IC50 in experiment [5] is 43 µM. Also, the result in the experiment on Escherichia coli [2], with Escherichia coli [3] and in the experiment on Staphylococcus aureus was inactive.

With `FC(F)(F)c1nc2ccc(SSc3ccc4nc(C(F)(F)F)[nH]c4c3)cc2[nH]1`, the Activity in the experiment with Escherichia coli [1] is under 50%. The result with Escherichia coli [2], in the experiment on Escherichia coli [3] and in the experiment with Staphylococcus aureus was inactive.

For the molecule `CSc1ccc2c(c1)c(CCN)c(C)n2Cc1ccccc1Cl`, in the experiment with Escherichia coli [1], the Activity was under 50%. The outcome in the experiment with Escherichia coli [2], with Escherichia coli [3] and in the experiment on Staphylococcus aureus was inactive.

As for `Sc1nnc(SCc2ccccc2Cl)c2nc[nH]c12`, the Activity with Escherichia coli [1] is under 50%. Moreover, the result in the experiment on Escherichia coli [2], in the experiment with Escherichia coli [3] and in the experiment on Staphylococcus aureus was inactive.

As to `O=C(O)C1C(C(=O)O)C2(Cl)C(Cl)=C(Cl)C1(Cl)C2(Cl)Cl` (stereo unspecified), the Activity in the experiment on Escherichia coli [4] was under 50%. Besides, the outcome with Escherichia coli [2], in the experiment on Escherichia coli [3] and in the experiment on Staphylococcus aureus was inactive.

With `O=S(=O)(O)c1ccc2c(/N=N/c3c(O)ccc4ccccc34)cccc2c1`, the Activity in the experiment on Escherichia coli [1] is under 50%. Moreover, the outcome in the experiment on Escherichia coli [2], in the experiment with Escherichia coli [3] and in the experiment on Staphylococcus aureus was inactive.

`O=C(O)c1c(Cl)c(Cl)c(Cl)c(Cl)c1C(=O)Nc1ccc2cn[nH]c2c1`: the Activity with Escherichia coli [1] was under 50%. Further, the result with Escherichia coli [2], with Escherichia coli [3] and with Staphylococcus aureus was inactive.

As to `O=C(O)c1cc2c(cc1S(=O)(=O)O)C1C(C3C2C2(Cl)C(Cl)=C(Cl)C3(Cl)C2(Cl)Cl)C2(Cl)C(Cl)=C(Cl)C1(Cl)C2(Cl)Cl` (stereo unspecified), in the experiment on Escherichia coli [4], the Activity is under 50%. In addition, the IC50 in experiment [5] was 34 µM. Further, the result with Escherichia coli [2], in the experiment on Escherichia coli [3] and with Staphylococcus aureus was inactive.

With `O=S(=O)(O)c1cc(/N=[N+](\[O-])c2cc(S(=O)(=O)O)c3ccccc3c2)cc2ccccc12`, the Activity with Escherichia coli [1] is under 50%. In addition, the outcome in the experiment with Escherichia coli [2], in the experiment with Escherichia coli [3] and with Staphylococcus aureus was inactive.

For the molecule `O=C(O)/C=C/c1c2ccc(=O)c(O)c-2oc2c(O)c(O)ccc12`, the Activity in the experiment on Escherichia coli [4] is under 50%. In addition, the half-inhibitory concentration (IC50) in experiment [5] is 47 µM. In addition, the result with Escherichia coli [2], with Escherichia coli [3] and with Staphylococcus aureus was inactive.

With `Oc1nc(S)nc(SCc2c(Cl)c(Cl)c(Cl)c(Cl)c2Cl)n1`, the Activity in the experiment on Escherichia coli [1] was under 50%. In addition, the IC50 in experiment [6] was 63 µM. The outcome in the experiment on Escherichia coli [3] was Active. The MIC against Staphylococcus aureus is 128 µg/mL (≈ 302 µM).

On to `CCOc1ccc2c(c1)C=C/C(=C/C=C1\C=C(C)c3cccnc3C1=O)N2C`, for which the Activity with Escherichia coli [1] is under 50%. For the same molecule, the outcome in the experiment on Escherichia coli [2], with Escherichia coli [3] and in the experiment with Staphylococcus aureus was inactive.

In the case of `Oc1ccccc1C(Sc1nc2ccccc2s1)Sc1nc2ccccc2s1`, the Activity with Escherichia coli [1] was under 50%. Also, the result with Escherichia coli [2], with Escherichia coli [3] and in the experiment with Staphylococcus aureus was inactive.

Regarding `Nc1c(S(=O)(=O)O)cc(Nc2cccc(S(N)(=O)=O)c2)c2c1C(=O)c1ccccc1C2=O`, the Activity with Escherichia coli [1] was under 50%. Also, the result in the experiment with Escherichia coli [2], in the experiment with Escherichia coli [3] and in the experiment on Staphylococcus aureus was inactive.

Source of the values: ChEMBL document CHEMBL1152765, “Discovery of new inhibitors of the bacterial peptidoglycan biosynthesis enzymes MurD and MurF by structure-based virtual screening” (Bioorg Med Chem, 2009).
